# Earlier results as cited in patent US12285520B2, “Product and manufacturing process for a gum” (McNeil AB, priority 2020, dated 2025).
# Settings: nicotine; stated as general knowledge, no experiment described
smiles,measurement,value
CN1CCCC1c1cccnc1 (stereo not shown) [nicotine],pKa,approximately 7.8
